We go through twelve molecules from patent US10544130B2, “Metallo-beta-lactamase inhibitors” (priority 2015, dated 2020).

The subject of this data set is Pseudomonas aeruginosa PAO1 MB9798 (efflux+, IMP-1). Conditions: ratio MITC95 PA 9798/MITC95 PA 9799; imipenem at 2 μg/mL. In outline: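 Isogenic PAO1 pair (efflux+ MB9798, efflux− MB9799, both IMP-1) tested by microbroth MIC with fixed imipenem and/or ceftazidime, usually at CLSI breakpoint, plus fixed class A/C inhibitor against AmpC. MBL inhibitor titrated; concentration restoring susceptibility recorded and fold difference between strains taken as efflux extent.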
Take `C[C@H](N)CNS(=O)(=O)c1ccc(-c2cccc3[nH]c(N)nc23)c(-c2nn[nH]n2)c1S(N)(=O)=O` [Example 184, 4-(2-amino-1H-benzo[d]imidazol-4-yl)-N1-((S)-2-aminopropyl)-3-(2H-tetrazol-5-yl)benzene-1,2-disulfonamide]: the Efflux ratio worked out at 1.00.

As for `NS(=O)(=O)c1c(S(=O)(=O)N[C@H]2C[C@H](N)C2)ccc(-c2cccc3[nH]cnc23)c1-c1nn[nH]n1` [Example 200, N^1-((1r,3r)-3-aminocyclobutyl)-4-(1H-benzo[d]imidazol-4-yl)-3-(2H-tetrazol-5-yl)benzene-1,2-disulfonamide], the Efflux ratio is on record as 1.00.

`Nc1nc2c(-c3ccc(S(=O)(=O)N[C@@H]4CN[C@@H](CO)C4)c(S(N)(=O)=O)c3-c3nnn[nH]3)cccc2s1` [Example 79, 4-(2-amino-1,3-benzothiazol-4-yl)-N1-[(3S,5R)-5-(hydroxymethyl)pyrrolidin-3-yl]-3-(1H-tetrazol-5-yl)benzene-1,2-disulfonamide]: the Efflux ratio worked out at 0.50.

For the molecule `NCCOCCNS(=O)(=O)c1ccc(-c2cccc3sc(N)nc23)c(-c2nnn[nH]2)c1S(N)(=O)=O` [Example 203, 4-(2-aminobenzo[d]thiazol-4-yl)-N^1-(2-(2-aminoethoxy)ethyl)-3-(1H-tetrazol-5-yl)benzene-1,2-disulfonamide], the Efflux ratio is given as 0.50.

On to `C[C@H](CN)NS(=O)(=O)c1ccc(-c2cccc(N)n2)c(-c2nn[nH]n2)c1S(N)(=O)=O` [Example 318, (R)—N1-(1-aminopropan-2-yl)-4-(6-aminopyridin-2-yl)-3-(2H-tetrazol-5-yl) benzene-1,2-disulfonamide], for which the Efflux ratio is given as 1.00.

As to `C[C@H](CN)NS(=O)(=O)c1ccc(-c2cccc3[nH]nnc23)c(-c2nn[nH]n2)c1S(N)(=O)=O` [Example 237, (R)-N^1-(1-aminopropan-2-yl)-4-(1H-benzo[d][1,2,3]triazol-4-yl)-3-(2H-tetrazol-5-yl)benzene-1,2-disulfonamide], the Efflux ratio stood at 0.50.

Consider `NS(=O)(=O)c1c(S(=O)(=O)N[C@@H]2CCNC2)ccc(-c2cccc(-c3nc[nH]n3)c2)c1-c1nn[nH]n1` [Example 225, (R)-N4-(pyrrolidin-3-yl)-2-(2H-tetrazol-5-yl)-3′-(1H-1,2,4-triazol-3-yl)-[1,1′-biphenyl]-3,4-disulfonamide], for which the Efflux ratio amounted to 1.00.

Consider `Nc1ccc2cccc(-c3ccc(S(=O)(=O)N[C@@H]4CNC[C@@H]4N)c(S(N)(=O)=O)c3-c3nn[nH]n3)c2n1` [Example 319, N^1-((3R,4S)-4-aminopyrrolidin-3-yl)-4-(2-aminoquinolin-8-yl)-3-(2H-tetrazol-5-yl)benzene-1,2-disulfonamide], for which the Efflux ratio is reported as 1.00.

Take `Nc1nc2c(-c3ccc(S(=O)(=O)NC4(CO)CCNC4)c(S(N)(=O)=O)c3-c3nnn[nH]3)cccc2s1` (stereo not drawn) [Example 84, 4-(2-amino-1,3-benzothiazol-4-yl)-N1-[3-(hydroxymethyl)pyrrolidin-3-yl]-3-(1H-tetrazol-5-yl)benzene-1,2-disulfonamide]: the Efflux ratio worked out at 1.00.

For the molecule `Cn1c(N)nc2c(-c3ccc(S(=O)(=O)N[C@@H]4CCNC4)c(S(N)(=O)=O)c3-c3nn[nH]n3)cccc21` [Example 164, 4-(2-amino-1-methyl-1H-benzo[d]imidazol-4-yl)-N^1-((R)-pyrrolidin-3-yl)-3-(2H-tetrazol-5-yl)benzene-1,2-disulfonamide], the Efflux ratio was 1.00.

As to `NS(=O)(=O)c1ccc(-c2ccc(S(=O)(=O)N[C@@H]3CCNC3)c(S(N)(=O)=O)c2-c2nnn[nH]2)cc1` [Example 135, (R)-N4-(pyrrolidin-3-yl)-2-(1H-tetrazol-5-yl)-[1,1′-biphenyl]-3,4,4′-trisulfonamide], the Efflux ratio was found to be 1.00.

Regarding `Nc1nc2c(-c3ccc(S(=O)(=O)N[C@H]4CNC[C@@H]4O)c(S(N)(=O)=O)c3-c3nnn[nH]3)cccc2[nH]1` [Example 169, 4-(2-amino-1H-benzo[d]imidazol-4-yl)-N^1-((3S,4S)-4-hydroxypyrrolidin-3-yl)-3-(1H-tetrazol-5-yl)benzene-1,2-disulfonamide], the Efflux ratio is on record as 1.00.
